Reference: patent publication US20130072427A1, “GPR 119 MODULATORS” (Pfizer Inc., priority 2009, published 2013)
Several values for one entry are separate records, joined by “and”; a condition that tells them apart may be missing. Identical values can stand only once.

Experiments:
[1] = molecular target: T1, human GPR119 (Homo sapiens, UniProt Q8TDV5); assay: cAMP functional assay (HTRF, hGPR119 HEK-CRE beta-lactamase cells); format: cell-based
T1 construct: host or cells: HEK293-CRE beta-lactamase cells
T1 sequence (Q8TDV5 1-335): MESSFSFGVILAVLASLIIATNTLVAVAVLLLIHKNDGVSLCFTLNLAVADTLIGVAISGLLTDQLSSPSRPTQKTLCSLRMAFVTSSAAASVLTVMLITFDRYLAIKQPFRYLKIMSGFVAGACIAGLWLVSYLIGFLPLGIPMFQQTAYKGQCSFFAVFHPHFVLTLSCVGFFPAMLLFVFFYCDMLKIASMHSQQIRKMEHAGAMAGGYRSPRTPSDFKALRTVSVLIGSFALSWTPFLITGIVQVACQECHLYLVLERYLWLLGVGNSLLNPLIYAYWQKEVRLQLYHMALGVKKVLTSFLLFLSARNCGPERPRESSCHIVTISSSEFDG
Procedure: GPR119 agonist activity was also determined with a cell-based assay utilizing an HTRF (Homogeneous Time-Resolved Fluorescence) cAMP detection kit (cAMP dynamic 2 Assay Kit; Cis Bio cat #62AM4PEC) that measures cAMP levels in the cell. The method is a competitive immunoassay between native cAMP produced by the cells and the cAMP labeled with the dye d2. The tracer binding is visualized by a Mab anti-cAMP labeled with Cryptate. The specific signal (i.e. energy transfer) is inversely proportional to the concentration of cAMP in either standard or sample.
Specifically, hGPR119HEK-CRE beta-lactamase cells (Invitrogen 2.5×10^7/ml; the same cell line used in the beta-lactamase assay described above) are removed from cryopreservation and diluted in growth medium (Dulbecco's modified Eagle medium high glucose (DMEM; Gibco Cat #11995-065), 1% charcoal dextran treated fetal bovine serum (CD serum; HyClone Cat #SH30068.03), 1×MEM Nonessential amino acids (Gibco Cat #15630-080) and 25 mM HEPES pH 7.0 (Gibco Cat #15630-080)). The cell concentration was adjusted to 1.5×10^5 cells/ml and 30 mls of this suspension was added to a T-175 flask and incubated at 37 degrees Celsius in a humidified environment in 5% carbon dioxide. After 16 hours (overnight), the cells were removed from the T-175 flask (by rapping the side of the flask), centrifuged at 800×g and then re-suspended in assay medium (1×HBSS+CaCl2+MgCl2 (Gibco Cat #14025-092) and 25 mM HEPES pH 7.0 (Gibco Cat #15630-080)). The cell concentration was adjusted to 6.25×10^5 cells/ml with assay medium and 8 μl of this cell suspension (5000 cells) was added to each well of a white Greiner 384-well, low-volume assay plate (VWR cat #82051-458).
Varying concentrations of each compound to be tested were diluted in assay buffer containing 3-isobutyl-1-methylxanthin (IBMX; Sigma cat #15879) and added to the assay plate wells in a volume of 2 microL (final IBMX concentration was 400 microM and final DMSO concentration was 0.58%). Following 30 minutes incubation at room temperature, 5 microL of labeled d2 cAMP and 5 microL of anti-cAMP antibody (both diluted 1:20 in cell lysis buffer; as described in the manufacturers assay protocol) were added to each well of the assay plate. The plates were then incubated at room temperature and after 60 minutes, changes in the HTRF signal were read with an Envision 2104 multilabel plate reader using excitation of 330 nm and emissions of 615 and 665 nm. Raw data were converted to nM cAMP by interpolation from a cAMP standard curve (as described in the manufacturer's assay protocol) and EC50 determinations were made from an agonist-response curves analyzed with a curve fitting program using a 4-paramter logistic dose response equation.

[2] = molecular target: T1, human GPR119; assay: Beta-lactamase functional assay (hGPR119 HEK293-CRE beta-lactamase reporter); format: cell-based
Procedure: The assay for GPR119 agonists utilizes a cell-based (hGPR119 HEK293-CRE beta-lactamase) reporter construct where agonist activation of human GPR119 is coupled to beta-lactamase production via a cyclic AMP response element (CRE). GPR119 activity is then measured utilizing a FRET-enabled beta-lactamase substrate, CCF4-AM (Live Blazer FRET-B/G Loading kit, Invitrogen cat #K1027). Specifically, hGPR119-HEK-CRE-beta-lactamase cells (Invitrogen 2.5×10^7/mL) were removed from liquid nitrogen storage, and diluted in plating medium (Dulbecco's modified Eagle medium high glucose (DMEM; Gibco Cat #11995-065), 10% heat inactivated fetal bovine serum (HIFBS; Sigma Cat #F4135), 1×MEM Nonessential amino acids (Gibco Cat #15630-080), 25 mM HEPES pH 7.0 (Gibco Cat #15630-080), 200 nM potassium clavulanate (Sigma Cat #P3494). The cell concentration was adjusted using cell plating medium and 50 microL of this cell suspension ([…]) was added into each well of a black, clear bottom, poly-d-lysine coated 384-well plate (Greiner Bio-One cat #781946) and incubated at 37 degrees Celsius in a humidified environment containing 5% carbon dioxide. After 4 hours the plating medium was removed and replaced with 40 microL of assay medium (Assay medium is plating medium without potassium clavulanate and HIFBS). Varying concentrations of each compound to be tested was then added in a volume of 10 microL (final DMSO≦0.5%) and the cells were incubated for 16 hours at 37 degrees Celsius in a humidified environment containing 5% carbon dioxide. Plates were removed from the incubator and allowed to equilibrate to room temperature for approximately 15 minutes. 10 microL of 6×CCF4/AM working dye solution (prepared according to instructions in the Live Blazer FRET-B/G Loading kit, Invitrogen cat #K1027) was added per well and incubated at room temperature for 2 hours in the dark. Fluorescence was measured on an EnVision fluorimetric plate reader, excitation 405 nm, emission 460 nm/535 nm. EC50 determinations were made from agonist-response curves analyzed with a curve fitting program using a 4-parameter logistic dose-response equation.

[3] = molecular target: T1, human GPR119; assay: GPR119 radioligand binding assay ([3H]Cmpd A, membranes of HEK 293FT cells over-expressing hGPR119); settings: competition with 3H-Cmpd A; Ki from IC50 by Cheng-Prusoff; one line per run
Procedure: HEK 293FT cells (Invitrogen, Carlsbad, Calif.) were grown in a shake flask in 293Freestyle medium (Invitrogen) supplemented with 50 microg/mL neomycin and 10 mM HEPES (37 C, 8% carbon dioxide, shaking). The cells were centrifuged gently (approximately 500×g, 10 minutes) and the pellet resuspended in a mixture of Dulbecco's PBS(minus Mg++/−Ca++) supplemented with 18% fetal bovine serum (Sigma Aldrich) and P1 virus such that the multiplicity of infection (MOI) was 10 and the final cell density was 1.3×10^6/ml (total volume 2.5 liters). The cells were transferred to a 5 liter Wave Bioreactor Wavebag (Wave Technologies, MA) and incubated for 4 hours at 27 degrees Celsius (17 rocks/min, 7 degrees platform angle); at the end of the incubation period, an equal volume (2.5 liters) of 293Freestyle medium supplemented with 30 mM sodium butyrate (Sigma Aldrich) was added (final concentration=15 mM), and the cells were grown for 20 hours (37 degrees Celsius, 8% CO2 [0.2 liters/min}, 25 rocks/minute, 7 degrees platform angle). Cells were harvested via centrifugation (3,000×g, 10 minutes), washed once on DPBS (minus Ca++/Mg++), resuspended in 0.25M sucrose, 25 mM HEPES, 0.5 mM EDTA, pH 7.4 and frozen at −80 degrees Celsius.
The frozen cells were thawed on ice and centrifuged at 700×g (1400 rpm) for 10 minutes at 4 degrees Celsius. The cell pellet was resuspended in 20 ml phosphate-buffered saline, and centrifuged at 1400 rpm for 10 minutes. The cell pellet was then resuspended in homogenization buffer (10 mM HEPES (Gibco #15630), pH 7.5, 1 mM EDTA (BioSolutions, #BIO260-15), 1 mM EGTA (Sigma, #E-4378), 0.01 mg/ml benzamidine (Sigma #B 6506), 0.01 mg/ml bacitracin (Sigma #B 0125), 0.005 mg/ml leupeptin (Sigma #L 8511), 0.005 mg/ml aprotinin (Sigma #A 1153)) and incubated on ice for 10 minutes. Cells were then lysed with 15 gentle strokes of a tight-fitting glass Dounce homogenizer. The homogenate was centrifuged at 1000×g (2200 rpm) for 10 minutes at 4 degrees Celsius. The supernatant was transferred into fresh centrifuge tubes on ice. The cell pellet was resuspended in homogenization buffer, and centrifuged again at 1000×g (2200 rpm) for 10 minutes at 4 degrees Celsius after which the supernatant was removed and the pellet resuspended in homogenization buffer. This process was repeated a third time, after which the supernatants were combined, Benzonase (Novagen #71206) and MgCl2 (Fluka #63020) were added to final concentrations of 1 U/ml and 6 mM, respectively, and incubated on ice for one hour. The solution was then centrifuged at 25,000×g (15000 rpm) for 20 minutes at 4 degrees Celsius, the supernatant was discarded, and the pellet was resuspended in fresh homogenization buffer (minus Benzonase and MgCl2). After repeating the 25,000×g centrifugation step, the final membrane pellet was resuspended in homogenization buffer and frozen at −80 degrees Celsius. The protein concentration was determined using the Pierce BCA protein assay kit (Pierce reagents A #23223 and B #23224).
Test compounds were serially diluted in 100% DMSO (J. T. Baker #922401). 2 microL of each dilution was added to appropriate wells of a 96-well plate (each concentration in triplicate). Unlabeled Cmpd A, at a final concentration of 10 microM, was used to determine non-specific binding.
^3H-Cmpd A was diluted in binding buffer (50 mM Tris-HCl, pH 7.5, (Sigma #T7443), 10 mM MgCl2 (Fluka 63020), 1 mM EDTA (BioSolutions #BIO260-15), 0.15% bovine serum albumin (Sigma #A7511), 0.01 mg/mL benzamidine (Sigma #B 6506), 0.01 mg/mL bacitracin (Sigma #B 0125), 0.005 mg/mL leupeptin (Sigma #L 8511), 0.005 mg/mL aprotinin (Sigma #A 1153)) to a concentration of 60 nM, and 100 microL added to all wells of 96-well plate (Nalge Nunc #267245).
Membranes expressing GPR119 were thawed and diluted to a final concentration of 20 μg/100 microL per well in Binding Buffer, and 100 microL of diluted membranes were added to each well of 96-well plate. […]

[4] = hGPR119 HEK-CRE beta-lactamase cells, HTRF cAMP, 30 minutes, one line per run, read-out: Human cAMP Functional EC50
[5] = percent of maximal activity relative to standard GPR119 agonist (WO2005121121) at 10 μM, one line per run, read-out: Intrinsic Activity* (%) (cAMP)

EC50 [1, 4] | Emax [1, 5] [%] | EC50 ([2]; **the curve was extrapolated to 100% to calculate an EC50, read-out: Human B-lactamase Functional EC50 (nM), curve extrapolated to 100%) [nM] | Emax ([2]; **the curve was extrapolated to 100% to calculate an EC50, read-out: Intrinsic Activity* (%) (B-lactamase), curve extrapolated to 100%) | EC50 ([2]; hGPR119 HEK293-CRE beta-lactamase cells, 16 hours incubation, one line per run, read-out: Human B-lactamase Functional EC50) [nM] | Emax ([2]; percent of maximal activity relative to standard GPR119 agonist (WO2005121121) at 10 microM, one line per run, read-out: Intrinsic Activity* (%) (B-lactamase)) | EC50 ([1]; **the curve was extrapolated to 100% to calculate an EC50, read-out: Human cAMP Functional EC50 (nM), curve extrapolated to 100%) [nM] | Emax ([1]; **the curve was extrapolated to 100% to calculate an EC50, read-out: Intrinsic Activity* (%) (cAMP), curve extrapolated to 100%) | Ki [3] [nM] | SMILES
18 nM | 36 | – | – | – | – | – | – | – | Cc1c(O[C@H]2CCN(C(=O)OC(C)C)C[C@H]2F)ncnc1N1Cc2cnn(C)c2C1 (racemic) [Example 13, 1-Isopropyl (3,4-cis)-3-fluoro-4-{[5-methyl-6-(1-methyl-4,6-dihydropyrrolo[3,4-c]pyrazol-5(1H)-yl)pyrimidin-4-yl]oxy}piperidine-1-carboxylate]
118 nM | 82 | – | – | – | – | – | – | – | Cc1c(OC2CCN(C(=O)OC3(C)CC3)CC2)ncnc1N1Cc2cnn(C)c2C1 [Example 5, 1-Methylcyclopropyl 4-{[5-methyl-6-(1-methyl-4,6-dihydropyrrolo[3,4-c]pyrazol-5(1H)-yl)pyrimidin-4-yl]oxy}piperidine-1-carboxylate]
> 10000 nM | – | 9220 | 100 | 3850 | 116 | 7500 | 100 | – | CC(C)OC(=O)N1CCC(Oc2cc(N3Cc4cnn(C)c4C3)ncn2)CC1 [Example 1, Isopropyl 4-{[6-(1-methyl-4,6-dihydropyrrolo[3,4-c]pyrazol-5(1H)-yl)pyrimidin-4-yl]oxy}piperidine-1-carboxylate]
239 nM and 108 nM | – | – | – | – | – | – | – | 26 | Cc1c(O[C@H]2[C@@H]3COC[C@H]2CN(C(=O)OC2(C)CC2)C3)ncnc1N1Cc2cnn(C)c2C1 [Example 10, 1-Methylcyclopropyyl (9-anti)-9-{[5-methyl-6-(1-methyl-4,6-dihydropyrrolo[3,4-c]pyrazol-5(1H)-yl)pyrimidin-4-yl]oxy}-3-oxa-7-azabicyclo[3.3.1]nonane-7-carboxylate]
